In brackets after ≈: the same amount, converted by molar mass.
Tests used:
Format in all cases: functional
Mycoplasmopsis bovis [1] = assay: Antimicrobial activity against Mycoplasma bovis isolate K harboring GyrA 83Ser and ParC 84Asp mutant by broth microdilution method
Mycoplasmopsis bovis [2] = assay: Antimicrobial activity against Mycoplasma bovis isolate 9249 harboring GyrA 83Ser and ParC 84Asp mutant by broth microdilution method
Mycoplasmopsis bovis [3] = assay: Antimicrobial activity against Mycoplasma bovis isolate 4554 harboring GyrA 83Ser and ParC 84Asp mutant by broth microdilution method
Mycoplasmopsis bovis [4] = assay: Antimicrobial activity against Mycoplasma bovis isolate 2670 harboring GyrA 83Ser and ParC 84Asp mutant by broth microdilution method
Mycoplasmopsis bovis [5] = assay: Antimicrobial activity against Mycoplasma bovis isolate 3036 harboring GyrA 83Phe and ParC 84Asp mutant by broth microdilution method
Mycoplasmopsis bovis [6] = assay: Antimicrobial activity against Mycoplasma bovis isolate 7910 harboring GyrA 83Ser and ParC 84Asp mutant by broth microdilution method
Mycoplasmopsis bovis [7] = assay: Antimicrobial activity against Mycoplasma bovis isolate 2E harboring GyrA 83Ser and ParC 84Asp mutant by broth microdilution method
Mycoplasmopsis bovis [8] = assay: Antimicrobial activity against Mycoplasma bovis isolate 2029 harboring GyrA 83Phe and ParC 84Asp mutant by broth microdilution method
Mycoplasmopsis bovis [9] = assay: Antimicrobial activity against Mycoplasma bovis isolate 3181 harboring GyrA 83Phe and ParC 84Asn mutant by broth microdilution method
Mycoplasmopsis bovis [10] = assay: Antimicrobial activity against Mycoplasma bovis isolate 9603 harboring GyrA 83Ser and ParC 84Asp mutant by broth microdilution method
Mycoplasmopsis bovis [11] = assay: Antimicrobial activity against Mycoplasma bovis isolate PG45 harboring GyrA 83Ser and ParC 84Asp mutant by broth microdilution method
Mycoplasmopsis bovis [12] = assay: Antimicrobial activity against Mycoplasma bovis isolate 3222 harboring GyrA 83Ser and ParC 84Asp mutant by broth microdilution method
Mycoplasmopsis bovis [13] = assay: Antimicrobial activity against Mycoplasma bovis isolate 523 harboring GyrA 83Phe and ParC 84Asn mutant by broth microdilution method
Mycoplasmopsis bovis [14] = assay: Antimicrobial activity against Mycoplasma bovis isolate 3179 harboring GyrA 83Phe and ParC 84Asp mutant by broth microdilution method
Mycoplasmopsis bovis [15] = assay: Antimicrobial activity against Mycoplasma bovis isolate 5180 harboring GyrA 83Ser and ParC 84Asp mutant by broth microdilution method
Mycoplasmopsis bovis [16] = assay: Antimicrobial activity against Mycoplasma bovis isolate 1665 harboring GyrA 83Phe and ParC 84Asn mutant by broth microdilution method
Mycoplasmopsis bovis [17] = assay: Antimicrobial activity against Mycoplasma bovis isolate 8998 harboring GyrA 83Ser and ParC 84Asp mutant by broth microdilution method
Mycoplasmopsis bovis [18] = assay: Antimicrobial activity against Mycoplasma bovis isolate 1306 harboring GyrA 83Phe and ParC 84Asp mutant by broth microdilution method
Mycoplasmopsis bovis [19] = assay: Antimicrobial activity against Mycoplasma bovis isolate 2643 harboring GyrA 83Phe and ParC 84Asp mutant by broth microdilution method
Mycoplasmopsis bovis [20] = assay: Antimicrobial activity against Mycoplasma bovis isolate 7043 harboring GyrA 83Phe and ParC 84Asp mutant by broth microdilution method
Mycoplasmopsis bovis [21] = assay: Antimicrobial activity against Mycoplasma bovis isolate 4243 harboring GyrA 83Phe and ParC 84Asn mutant by broth microdilution method
Mycoplasmopsis bovis [22] = assay: Antimicrobial activity against Mycoplasma bovis isolate 6099 harboring GyrA 83Ser and ParC 84Asp mutant by broth microdilution method
Mycoplasmopsis bovis [23] = assay: Antimicrobial activity against Mycoplasma bovis isolate 8934 harboring GyrA 83Ser and ParC 84Asp mutant by broth microdilution method
Mycoplasmopsis bovis [24] = assay: Antimicrobial activity against Mycoplasma bovis isolate 4925 harboring GyrA 83Ser and ParC 84Asn mutant by broth microdilution method
Mycoplasmopsis bovis [25] = assay: Antimicrobial activity against Mycoplasma bovis isolate 4241 harboring GyrA 83Phe and ParC 84Asn mutant by broth microdilution method
Mycoplasmopsis bovis [26] = assay: Antimicrobial activity against Mycoplasma bovis isolate 6226 harboring GyrA 83Ser and ParC 84Asp mutant by broth microdilution method
Mycoplasmopsis bovis [27] = assay: Antimicrobial activity against Mycoplasma bovis isolate 2D harboring GyrA 83Ser and ParC 84Asp mutant by broth microdilution method
Mycoplasmopsis bovis [28] = assay: Antimicrobial activity against Mycoplasma bovis isolate 8830 harboring GyrA 83Phe and ParC 84Asn mutant by broth microdilution method
Mycoplasmopsis bovis [29] = assay: Antimicrobial activity against Mycoplasma bovis isolate 77 harboring GyrA 83Phe and ParC 84Asp mutant by broth microdilution method
Mycoplasmopsis bovis [30] = assay: Antimicrobial activity against Mycoplasma bovis isolate H harboring GyrA 83Ser and ParC 84Asp mutant by broth microdilution method
Mycoplasmopsis bovis [31] = assay: Antimicrobial activity against Mycoplasma bovis isolate 861 harboring GyrA 83Ser and ParC 84Asp mutant by broth microdilution method
Mycoplasmopsis bovis [32] = assay: Antimicrobial activity against Mycoplasma bovis isolate 1416 harboring GyrA 83Phe and ParC 84Asp mutant by broth microdilution method
Mycoplasmopsis bovis [33] = assay: Antimicrobial activity against Mycoplasma bovis isolate 9771 harboring GyrA 83Phe and ParC 84Asn mutant by broth microdilution method
Mycoplasmopsis bovis [34] = assay: Antimicrobial activity against Mycoplasma bovis isolate 4879 harboring GyrA 83Phe and ParC 84Asn mutant by broth microdilution method
Mycoplasmopsis bovis [35] = assay: Antimicrobial activity against Mycoplasma bovis isolate 5848 harboring GyrA 83Phe and ParC 84Asp mutant by broth microdilution method
Mycoplasmopsis bovis [36] = assay: Antimicrobial activity against Mycoplasma bovis isolate 330 harboring GyrA 83Ser and ParC 84Asp mutant by broth microdilution method
Mycoplasmopsis bovis [37] = assay: Antimicrobial activity against Mycoplasma bovis isolate 476-2 harboring GyrA 83Ser and ParC 84Asp mutant by broth microdilution method
Mycoplasmopsis bovis [38] = assay: Antimicrobial activity against Mycoplasma bovis isolate 111-2 harboring GyrA 83Ser and ParC 84Asp mutant by broth microdilution method
Mycoplasmopsis bovis [39] = assay: Antimicrobial activity against Mycoplasma bovis isolate 3374 harboring GyrA 83Phe and ParC 84Asp mutant by broth microdilution method
Mycoplasmopsis bovis [40] = assay: Antimicrobial activity against Mycoplasma bovis isolate 1972 harboring GyrA 83Phe and ParC 84Asn mutant by broth microdilution method
Mycoplasmopsis bovis [41] = assay: Antimicrobial activity against Mycoplasma bovis isolate 962 harboring GyrA 83Phe and ParC 84Asn mutant by broth microdilution method
Mycoplasmopsis bovis [42] = assay: Antimicrobial activity against Mycoplasma bovis isolate 2458 harboring GyrA 83Phe and ParC 84Asp mutant by broth microdilution method
Mycoplasmopsis bovis [43] = assay: Antimicrobial activity against Mycoplasma bovis isolate 170 harboring GyrA 83Ser and ParC 84Asp mutant by broth microdilution method

`CCN1CCN(c2cc3c(cc2F)c(=O)c(C(=O)O)cn3C2CC2)CC1` [ENROFLOXACIN] showed an MIC (Mycoplasmopsis bovis [1]) of 0.16 µg/mL (≈ 0.445 µM), an MIC (Mycoplasmopsis bovis [2]) of 0.16 µg/mL (≈ 0.445 µM) and an MIC (Mycoplasmopsis bovis [3]) of 0.16 µg/mL (≈ 0.445 µM). The MIC (Mycoplasmopsis bovis [4]) was 0.08 µg/mL (≈ 0.223 µM), the MIC (Mycoplasmopsis bovis [5]) was 1.25 µg/mL (≈ 3.48 µM) and the MIC (Mycoplasmopsis bovis [6]) was 0.32 µg/mL (≈ 0.89 µM). The MIC (Mycoplasmopsis bovis [7]) was 0.16 µg/mL (≈ 0.445 µM), the MIC (Mycoplasmopsis bovis [8]) was 0.32 µg/mL (≈ 0.89 µM) and the MIC (Mycoplasmopsis bovis [9]) was 2.5 µg/mL (≈ 6.96 µM). The MIC (Mycoplasmopsis bovis [10]) was 0.16 µg/mL (≈ 0.445 µM), the MIC (Mycoplasmopsis bovis [11]) was 0.16 µg/mL (≈ 0.445 µM) and the MIC (Mycoplasmopsis bovis [12]) was 0.16 µg/mL (≈ 0.445 µM). It also gave an MIC (Mycoplasmopsis bovis [13]) of 2.5 µg/mL (≈ 6.96 µM), an MIC (Mycoplasmopsis bovis [14]) of 0.63 µg/mL (≈ 1.75 µM) and an MIC (Mycoplasmopsis bovis [15]) of 0.16 µg/mL (≈ 0.445 µM). The MIC (Mycoplasmopsis bovis [16]) was 2.5 µg/mL (≈ 6.96 µM), the MIC (Mycoplasmopsis bovis [17]) was 0.08 µg/mL (≈ 0.223 µM) and the MIC (Mycoplasmopsis bovis [18]) was 1.25 µg/mL (≈ 3.48 µM). The MIC (Mycoplasmopsis bovis [19]) was 1.25 µg/mL (≈ 3.48 µM), the MIC (Mycoplasmopsis bovis [20]) was 0.32 µg/mL (≈ 0.89 µM) and the MIC (Mycoplasmopsis bovis [21]) was 2.5 µg/mL (≈ 6.96 µM). The MIC (Mycoplasmopsis bovis [22]) was 0.16 µg/mL (≈ 0.445 µM), the MIC (Mycoplasmopsis bovis [23]) was 0.32 µg/mL (≈ 0.89 µM) and the MIC (Mycoplasmopsis bovis [24]) was 2.5 µg/mL (≈ 6.96 µM). For the same molecule, the MIC (Mycoplasmopsis bovis [25]) was 2.5 µg/mL (≈ 6.96 µM), the MIC (Mycoplasmopsis bovis [26]) was 0.32 µg/mL (≈ 0.89 µM) and the MIC (Mycoplasmopsis bovis [27]) was 0.16 µg/mL (≈ 0.445 µM). For the same molecule, the MIC (Mycoplasmopsis bovis [28]) was 5 µg/mL (≈ 13.9 µM), the MIC (Mycoplasmopsis bovis [29]) was 0.63 µg/mL (≈ 1.75 µM) and the MIC (Mycoplasmopsis bovis [30]) was 0.16 µg/mL (≈ 0.445 µM). For the same molecule, the MIC (Mycoplasmopsis bovis [31]) was 0.08 µg/mL (≈ 0.223 µM), the MIC (Mycoplasmopsis bovis [32]) was 0.32 µg/mL (≈ 0.89 µM) and the MIC (Mycoplasmopsis bovis [33]) was 5 µg/mL (≈ 13.9 µM). The MIC (Mycoplasmopsis bovis [34]) was 5 µg/mL (≈ 13.9 µM), the MIC (Mycoplasmopsis bovis [35]) was 1.25 µg/mL (≈ 3.48 µM) and the MIC (Mycoplasmopsis bovis [36]) was 0.08 µg/mL (≈ 0.223 µM). The MIC (Mycoplasmopsis bovis [37]) was 0.16 µg/mL (≈ 0.445 µM), the MIC (Mycoplasmopsis bovis [38]) was 0.16 µg/mL (≈ 0.445 µM) and the MIC (Mycoplasmopsis bovis [39]) was 1.25 µg/mL (≈ 3.48 µM). For the same molecule, the MIC (Mycoplasmopsis bovis [40]) was 2.5 µg/mL (≈ 6.96 µM), the MIC (Mycoplasmopsis bovis [41]) was 5 µg/mL (≈ 13.9 µM) and the MIC (Mycoplasmopsis bovis [42]) was 1.25 µg/mL (≈ 3.48 µM). The MIC (Mycoplasmopsis bovis [43]) was 0.63 µg/mL (≈ 1.75 µM).

From ChEMBL document CHEMBL1649257, “Rapid detection of a point mutation in the parC gene associated with decreased susceptibility to fluoroquinolones in Mycoplasma bovis” (2009)
